# Laboratory results reported in US20070202206A1, “Morinda Citrifolia Leaf Juice And Leaf Extract Based Formulations” (priority 2005, published 2007).
# What was measured:
# [1] = test system: Propionibacterium acnes (ATCC 6919); assay: Microbial in vitro assay, Propionibacterium acnes; type: cell-based; details: Microbial In Vitro Assays, Anaerobes
# [2] = test system: human epidermoid carcinoma cell line-A431; assay: cells; type: cell-based; details: for Percent Grown: A431, 72-hour exposure
# Procedure: In this example, assays were performed to detect changes in cell proliferation based on the ability of viable cells to cause alamarBlue to change from non-fluorescent blue to a reduced, fluorescent red form. With the results obtained from the alamarBlue reaction, cell proliferation can be quantified and metabolic activity of viable cells can be examined. Test compounds including Morinda citrifolia leaf extract, leaf juice, and roast leaf were tested for their effects on […]
# Morinda citrifolia leaf extract, leaf juice, and roast leaf were provided by Tahitian Noni International, Inc. for in vitro anti-tumor studies. The Morinda citrifolia compounds were dissolved in sterile distilled water and then diluted with sterile distilled water to obtain initial working solutions of 10000, 1000, 100, 10, and 1 μg/ml for the leaf extract and roast leaf, as well as 100, 10, 1, 0.1 and 0.01% for the leaf juice.
# The tumor cell line, A431 (human epidermoid carcinoma), obtained from American Type Culture Collection (ATCC CRL-1555), was incubated in an air atmosphere of 5% CO2 at 37° C. The culture medium was used with Dulbecco's Modified Eagle's medium, 90%; Fetal Bovine Serum, 10% and supplemented with 1% Antibiotic-Antimycotic.
# The anti-proliferation for the test substances was evaluated. Aliquots of 100 μl of cell suspension (about 3×10^3/well) were placed in 96-well microtiter plates in an atmosphere of 5% CO2 at 37° C. […] At the end of incubation, 20 μl of 90% alamarBlue reagent was added to each well for another 6-hour incubation before detection of cell viability by fluorescent intensity. Fluorescent intensity was measured using a Spectrafluor Plus plate reader with excitation at 530 nm and demission at 590 nm.
# IC50, TGI, and LC50 values were then determined. […] TGI (Total Growth Inhibition) is the test compound concentration where the number or mass of treated cells at the end of the experiment was equal to that at time0. […] The measured results were calculated by the following formula: PG(%)=100×(Mean Ftest−Mean Ftime0)/(Mean Fctrl−Mean Ftime0)
# If (Mean Ftest−Mean Ftime0)<0, then PG(%)−100×(Mean Ftest−Mean Ftime0)/(Mean Ftime0−Mean Fblank)
# Where: • PG=percent growth • Mean Ftime0=The average of 2 measured fluorescent intensities of reduced alamarBlue at the time just before exposure of cells to the test substance. • Mean Ftest=The average of 2 measured fluorescent intensities of alamarBlue after 72-hour exposure of cells to the test substance. • Mean Fctrl, =The average of 2 measured fluorescent intensities of alamarBlue after 72-hour incubation without the test substance. • Mean Fblank=The average of 2 measured fluorescent intensities of alamarBlue in medium without cells after 72-hour incubation.
# A decrease of 50% or more (≧50%) in fluorescent intensity relative to the vehicle-treated control indicated significant cell growth inhibition, cytostatic or cytotoxic activity, and a semi-quantitative IC50, TGI, and LC50 were then determined by nonlinear regression using GraphPad Prism (GraphPad Software, USA).
Compound,"Reference Compound Data, Concurrent [1] [µg/mL]",Percent Grown ([2]; concentration 0.001 μM) [%],Percent Grown ([2]; concentration 0.01 μM) [%],Percent Grown ([2]; concentration 0.1 μM) [%],Percent Grown ([2]; concentration 1 μM) [%],Percent Grown ([2]; concentration 10 μM) [%],"IC50 ([2]; Homo sapiens, A-431, Tumor, Skin (A431), semi-quantitative, nonlinear regression, read-out: IC50 (50% Inhibition Concentration)) [nM]","TGI (Total Growth Inhibition) ([2]; Tumor, Skin (A431), semi-quantitative, nonlinear regression) [nM]"
CC1(C)S[C@@H]2[C@H](NC(=O)[C@H](N)c3ccccc3)C(=O)N2[C@H]1C(=O)O [Ampicillin],0.1,–,–,–,–,–,–,–
CO[C@@]12[C@H](COC(N)=O)C3=C(C(=O)C(C)=C(N)C3=O)N1C[C@@H]1N[C@@H]12 [Mitomycin],–,101,82,7,35,97,35,190
